Measured values reported in US8846657B2, “Substituted imidazopyridines as HDM2 inhibitors” (Merck Sharp & Dohme Corp., priority 2012, dated 2014).
Read-outs that look alike come from different tables or passages of the source.

Biological target: HDM2 (Homo sapiens (Human), UniProt Q00987)
Assay: HDM2 FRET assay (inhibition of p53 peptide binding to HDM2)
Conditions: read-out: FRET IC50
[1] = 0.5 nM HDM2 (residues 17-125), 3 nM FITC peptide, 2 h at room temperature, values rounded to the nearest integer

Sequence of HDM2 (Q00987 17-125): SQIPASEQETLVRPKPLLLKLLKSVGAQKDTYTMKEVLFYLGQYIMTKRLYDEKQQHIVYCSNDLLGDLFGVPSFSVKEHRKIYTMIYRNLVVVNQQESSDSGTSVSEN
Excerpt: Methods: An HDM2 FRET assay was developed to assess the compounds' inhibitory activity towards binding of p53 protein. […] Ratio of em520/em495 was used to calculate % inhibition and to obtain IC50 with 4-parameter logistic equation.
Concentration of compound was plotted against em520/Cem495 ratio signal. To generate IC50 values, the dose-response curves were fitted to a standard sigmoidal curve and IC50 values were derived by nonlinear regression analysis.

Row | SMILES | IC50 | IC50 [1]
1 | C[C@H]1CC[C@H](Cn2c(N3CCO[C@@H]4CCC[C@H]43)nc3cc(-c4nnn[nH]4)nc(-c4cncc(Cl)c4)c32)CC1 [Example 14.4, 4-(5-chloropyridin-3-yl)-2-[(4aR,7aR)-hexahydrocyclopenta[b][1,4]oxazin-4(4aH)-yl]-3-[(trans-4-methylcyclohexyl)methyl]-6-(1H-tetrazol-5-yl)-3H-imidazo[4,5-c]pyridine] | < 1 nM | –
2 | COCCO[C@@H]1C[C@@H](C(C)C)N(c2nc3cc(-c4noc(=O)[nH]4)nc(-c4cncc(Cl)c4)c3n2C[C@H]2CC[C@H](C)CC2)C1 [Example 3.144, 3-{4-(5-chloropyridin-3-yl)-2-[(2S,4R)-4-(2-methoxyethoxy)-2-(1-methylethyl)-pyrrolidin-1-yl]-3-[(trans-4-methylcyclohex-yl)methyl]-3H-imidazo[4,5-c]pyridin-6-yl}-1,2,4-oxadiazol-5(4H)-one] | – | < 1 nM
3 | C[C@H]1CC[C@H](Cn2c(N3CCOC[C@H]3c3ccccc3)nc3cc(-c4noc(=O)[nH]4)nc(-c4cncc(Cl)c4)c32)CC1 [Example 2.1, 3-{4-(5-chloropyridin-3-yl)-3-[(trans-4-methylcyclohexyl)methyl]-2-[(3R)-3-phenylmorpholin-4-yl]-3H-imidazo[4,5-c]pyridin-6-yl}-1,2,4-oxadiazol-5(4H)-one] | – | < 1 nM
4 | CO[C@@H]1C[C@@H](C(C)C)N(c2nc3cc(-c4noc(=O)[nH]4)nc(-c4cncc(Cl)c4)c3n2C[C@H]2CC[C@H](C)CC2)C1 [Example 3.90, 3-{4-(5-chloropyridin-3-yl)-2-[(2S,4R)-4-methoxy-2-(propan-2-yl)pyrrolidin-1-yl]-3-[(trans-4-methylcyclohexyl)methyl]-3H-imidazo[4,5-d]pyridin-6-yl}-1,2,4-oxadiazol-5(4H)-one] | – | < 1 nM
5 | C[C@H]1CC[C@H](Cn2c(N3CCC[C@H]3c3nccs3)nc3cc(-c4noc(=O)[nH]4)nc(-c4cncc(Cl)c4)c32)CC1 [Example 3.81, 3-{4-(5-chloropyridin-3-yl)-3-[(trans-4-methylcyclohex-yl)methyl]-2-[(2S)-2-(1,3-thiazol-2-yl)pyrrolidin-1-yl]-3H-imidazo[4,5-c]pyridin-6-yl}-1,2,4-oxadiazol-5(4H)-one] | – | < 1 nM
6 | C[C@H]1CC[C@H](Cn2c(N3CCC[C@H]3C(F)(F)F)nc3cc(-c4nnn[nH]4)nc(-c4cncc(Cl)c4)c32)CC1 [Example 14.1, 4-(5-chloropyridin-3-yl)-3-[(trans-4-methylcyclohexyl)methyl]-6-(1H-tetrazol-5-yl)-2-[(2S)-2-(trifluoromethyl)pyrrolidin-1-yl]-3H-imidazo[4,5-c]pyridine] | < 1 nM | –
